Target: Dual-Specificity-Tyrosine-Phosphorylation-Regulated Kinase 1B (DYRK1B) (Homo sapiens, UniProt Q9Y463)
Experiment: radiometric […]-ATP kinase assay with recombinant DYRK1B and DYRKtide substrate ([…] ATP)
Assay type: biochemical

Chain of Dual-Specificity-Tyrosine-Phosphorylation-Regulated Kinase 1B (DYRK1B) (Q9Y463 whole entry): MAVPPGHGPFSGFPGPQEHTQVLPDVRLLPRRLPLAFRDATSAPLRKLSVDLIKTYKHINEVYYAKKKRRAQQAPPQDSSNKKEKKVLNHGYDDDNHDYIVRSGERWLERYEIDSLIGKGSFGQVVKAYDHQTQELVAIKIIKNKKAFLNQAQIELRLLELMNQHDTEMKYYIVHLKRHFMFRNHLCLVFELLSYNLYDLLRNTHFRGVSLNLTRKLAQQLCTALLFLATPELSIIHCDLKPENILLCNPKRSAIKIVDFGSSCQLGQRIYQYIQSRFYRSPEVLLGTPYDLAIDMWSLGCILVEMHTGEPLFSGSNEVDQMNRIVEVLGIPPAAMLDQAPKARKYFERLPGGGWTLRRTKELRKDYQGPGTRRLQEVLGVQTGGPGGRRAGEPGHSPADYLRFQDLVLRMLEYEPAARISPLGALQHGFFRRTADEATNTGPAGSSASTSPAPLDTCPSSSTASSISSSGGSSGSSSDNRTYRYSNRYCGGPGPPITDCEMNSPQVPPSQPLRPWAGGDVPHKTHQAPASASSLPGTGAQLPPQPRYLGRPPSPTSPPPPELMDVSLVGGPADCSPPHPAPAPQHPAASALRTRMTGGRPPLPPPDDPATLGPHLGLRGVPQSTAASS

O=C(Nc1nc2cc(C(F)(F)F)ccc2[nH]1)c1csc(-c2ccc3c(c2)CCO3)n1 [DYRKi]
IC50: 90 nM

Source: publication PMC4872774, “DYRK1B as therapeutic target in Hedgehog/GLI-dependent cancer cells with Smoothened inhibitor resistance” (Oncotarget, 2016)
